Test results taken from EP4737445A1, “NOVEL SATURATED HETEROCYCLE-SUBSTITUTED HETEROARYL-CARBONOHYDRAZONOYL DICYANIDE COMPOUND AND USE THEREOF” (Korea Institute of Science and Technology, priority 2023, dated 2025).

Assays:
[1] = target: T1, CYP3A4 (Homo sapiens, UniProt P08684); assay: CYP isoenzyme activity inhibition in human liver microsomes, CYP3A4; type: in vitro ADME; details: 10 µM compound; human liver microsomes 0.25 mg/mL; relative to control without compound
T1 construct: human liver microsomes (0.25 mg/mL); from tissue; host or cells: human liver microsomes
Procedure: The CYP isoenzyme activity inhibitory effect by the compounds prepared according to Examples 1 to 46 was confirmed. Specifically, human liver microsomes (0.25 mg/mL), 0.1 M phosphate buffer solution (pH 7.4), a substrate drug cocktail of five drug metabolizing enzymes (Phenacetin 50 µM, Diclofenac 10 µM, S-mephenytoin 100 µM, Dextromethorphan 5 µM, and Midazolam 2.5 µM), and the compounds were added at concentrations of 0 or 10 µM, respectively, and pre-incubated at 37°C for 5 minutes, and then NADPH generation system solution was added and incubated at 37°C for an additional 15 minutes. Thereafter, an acetonitrile solution containing an internal standard (Terfenadine) was added to terminate the reaction, and after centrifugation for 5 minutes (14,000 rpm, 4°C), the supernatant was injected into an LC-MS/MS system to simultaneously analyze the metabolites of the substrate drugs, thereby evaluating the drug metabolizing enzyme inhibitory activity.
The metabolites of each CYP isoenzyme marker drug generated through the reaction were analyzed using a Shimadzu Nexera XR system and TSQ vantage (Thermo). A Kinetex C18 (2.1 × 100 mm, 2.6 µm, particle size; Phenomenex, USA) was used as the HPLC column, and (A) distilled water containing 0.1% formic acid and (B) acetonitrile containing 0.1% formic acid were used as mobile phases, and a gradient program as shown in Table 6 below was applied.
The generated metabolites were quantified using MRM (Multiple Reaction Monitoring) quantitative mode, and Xcalibur (version 1.6.1) was used for data analysis. To show the CYP isoenzyme activity inhibitory effect of the novel compounds prepared according to the Examples of the disclosure, the % activity of CYP isoenzymes relative to the control group without compound addition is shown in Table 6 below. Additionally, to confirm the difference in effect according to substituents, Comparative Compounds 1 and 5, which are two compounds that share a similar parent nucleus structure with Compounds 1 to 46 of the disclosure while Cy is substituted with aromatic heteroaryl instead of saturated heterocyclyl, were selected as comparative compounds and their activities are shown together.

[2] = Liver microsomal stability, rat; type: in vitro ADME; details: 1 µM compound; 0.5 mg/mL microsomes; NADPH; 30 minutes at 37°C
Procedure: Liver microsomal stability by the compounds prepared according to Examples 1 to 46 was confirmed. Specifically, four types of liver microsomes (human, dog, rat, and mouse each at 0.5 mg/mL), 0.1 M phosphate buffer solution (pH 7.4), and the compounds at 1 µM concentration were added and pre-incubated at 37°C for 5 minutes, and then NADPH generation system solution was added and incubated at 37°C for an additional 30 minutes. Thereafter, an acetonitrile solution containing an internal standard (chloropropamide) was added to terminate the reaction, and after centrifugation for 5 minutes (14,000 rpm, 4°C), the supernatant was injected into an LC-MS/MS system to analyze the substrate drug, thereby evaluating the metabolic stability of 8 compounds.
The amount of remaining substrate through the reaction was analyzed using a Shimadzu Nexera XR system and TSQ vantage (Thermo). A Kinetex XB-C18 (2.1 × 100 mm, 2.6 µm, particle size; Phenomenex, USA) was used as the HPLC column, and (A) distilled water containing 0.1% formic acid and (B) acetonitrile containing 0.1% formic acid were used as mobile phases. Analyst software (version 1.6.3) and Xcalibur (version 1.6.1) were used for data analysis. The calculated results are shown in Table 5 below: Liver microsomal stability data of novel compounds from […] (human, rat, and mouse).

[3] = target: T2, Tau (Homo sapiens, UniProt P10636); assay: Tau aggregation inhibition in Tau-BiFC cell model (Forskolin-induced); type: cell-based
T2 construct: BiFC fluorescent-protein fragments (two complementary halves on two tau copies); expressed in transfected cells
Procedure: To screen for new tau aggregation inhibitors, a Tau-BiFC cell model that facilitates observation of tau oligomer formation in living cells was used. Tau-BiFC cells were dispensed into a 384-well plate, and the next day, the compounds prepared according to Examples 1 to 46 were treated at concentrations of 1, 3, and 10 µM, respectively, together with Forskolin (treatment concentration 30 µM), which is a compound that induces tau aggregation by activating the tau phosphorylation enzyme PKA. After 48 hours, nuclei within cells were stained using Hoechst (treatment concentration 2 µg/mL), and BiFC fluorescence intensity was automatically quantified using Operetta (Perkin Elmer) to count the stained nuclei in each well from the entire plate. The group treated only with Forskolin, which induces tau aggregation, was set as the reference point with 100% tau aggregation state, and the effect was confirmed by the formula "BiFC fluorescence intensity by the compounds synthesized according to the Examples of the disclosure/(fluorescence intensity of the control group treated only with Forskolin that induces tau aggregation - fluorescence intensity of the untreated control group) × 100". In addition, the degree of cytotoxicity induced by the newly synthesized compounds was also calculated using the formula "(number of stained nuclei in the compound-treated group/number of stained nuclei in the Forskolin-treated group) × 100", with the group treated only with Forskolin as the reference point at 100% viability. From the treatment results, substances that inhibit intracellular tau aggregation were identified through screening from a series of candidates based on the criteria of 70% or more tau aggregation inhibition and 100% cell viability at a compound treatment concentration of 10 µM.
To confirm the tau aggregation inhibitory effect according to the concentration of the compounds screened in Experimental Example 1, the screened compounds were treated to Tau-BiFC cells at concentrations of 0.03, 0.1, 0.3, 1, 3, 10, and 30 µM, respectively, together with Forskolin (treatment concentration 30 µM), which is a tau aggregation-inducing substance. After 48 hours, cell images were examined to analyze the tau aggregation reaction and degree of cytotoxicity. The IC50 and toxicity of the compounds were analyzed by nonlinear regression analysis using Prism software (GraphPad). The calculated results for representative compounds are shown in Table 3 below: Tau aggregation inhibitory effect and cell viability of novel compounds.

T2 sequence (P10636 1-441 isoform P10636-8): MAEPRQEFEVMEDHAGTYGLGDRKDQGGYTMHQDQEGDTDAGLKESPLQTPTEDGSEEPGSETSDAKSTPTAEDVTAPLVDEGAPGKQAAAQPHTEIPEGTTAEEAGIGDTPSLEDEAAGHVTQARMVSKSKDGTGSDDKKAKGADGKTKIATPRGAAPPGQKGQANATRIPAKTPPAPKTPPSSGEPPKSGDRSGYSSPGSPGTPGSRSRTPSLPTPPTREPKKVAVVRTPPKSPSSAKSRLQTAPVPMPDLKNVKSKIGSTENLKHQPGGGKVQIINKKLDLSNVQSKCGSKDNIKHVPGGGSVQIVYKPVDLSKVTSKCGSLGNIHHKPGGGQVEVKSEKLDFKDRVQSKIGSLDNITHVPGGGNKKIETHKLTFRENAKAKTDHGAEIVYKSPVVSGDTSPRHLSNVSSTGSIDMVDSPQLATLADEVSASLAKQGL
T1 sequence (P08684 whole entry): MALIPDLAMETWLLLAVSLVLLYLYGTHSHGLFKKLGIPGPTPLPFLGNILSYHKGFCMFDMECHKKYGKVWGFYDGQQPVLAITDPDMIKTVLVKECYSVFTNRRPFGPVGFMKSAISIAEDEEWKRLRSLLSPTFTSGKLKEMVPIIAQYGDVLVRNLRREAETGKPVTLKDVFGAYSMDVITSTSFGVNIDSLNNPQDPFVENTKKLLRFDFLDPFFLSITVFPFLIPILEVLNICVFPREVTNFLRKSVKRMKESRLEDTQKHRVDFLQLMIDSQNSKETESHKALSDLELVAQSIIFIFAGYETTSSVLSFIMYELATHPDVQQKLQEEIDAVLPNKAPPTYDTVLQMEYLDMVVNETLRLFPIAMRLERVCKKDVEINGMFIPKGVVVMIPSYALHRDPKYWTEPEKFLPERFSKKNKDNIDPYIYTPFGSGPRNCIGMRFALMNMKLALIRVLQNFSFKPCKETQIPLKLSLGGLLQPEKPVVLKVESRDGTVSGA

Structure (SMILES) | CYP3A4 (% activity) [1] [% activity] | Rat microsomes (% remaining) [2] [% remaining] | IC50 [3] [nM]
N#CC(C#N)=NNc1ccc2sc(N3CCOCC3)nc2c1 [Compound 1, (2-morpholinobenzo[d]thiazol-5-yl)carbonohydrazonoyl dicyanide] | 95.5 | 2.1 | 12
N#CC(C#N)=NNc1ccc2nc(N3CCOCC3)sc2c1 [Compound 2, (2-morpholinobenzo[d]thiazol-6-yl)carbonohydrazonoyl dicyanide] | 95.7 | 55.2 | 4
N#CC(C#N)=NNc1ccc2oc(N3CCOCC3)nc2c1 [Compound 3, (2-morpholinobenzo[d]oxazol-5-yl)carbonohydrazonoyl dicyanide] | > 100 | 73.0 | 20
N#CC(C#N)=NNc1ccc2nc(N3CCOCC3)oc2c1 [Compound 4, (2-morpholinobenzo[d]oxazol-6-yl)carbonohydrazonoyl dicyanide] | 94 | 80.9 | 56
Cn1c(N2CCOCC2)nc2ccc(NN=C(C#N)C#N)cc21 [Compound 5, (1-methyl-2-morpholino-1H-benzo[d]imidazol-6-yl)carbonohydrazonoyl dicyanide] | 86.1 | 77.8 | 32
Cn1c(N2CCOCC2)nc2cc(NN=C(C#N)C#N)ccc21 [Compound 6, (1-methyl-2-morpholino-1H-benzo[d]imidazol-5-yl)carbonohydrazonoyl dicyanide] | 96.7 | 66.1 | 24
CN1CCN(c2nc3ccc(NN=C(C#N)C#N)cc3s2)CC1 [Compound 8, (2-(4-methylpiperazin-1-yl)benzo[d]thiazol-6-yl)carbonohydrazonoyl dicyanide] | 95 | 76.6 | 32
COC1CCN(c2nc3ccc(NN=C(C#N)C#N)cc3s2)CC1 [Compound 9, (2-(4-methoxypiperidin-1-yl)benzo[d]thiazol-6-yl)carbonohydrazonoyl dicyanide] | 66.1 | 17.7 | 36
CC1CN(c2nc3ccc(NN=C(C#N)C#N)cc3s2)CC(C)O1 (centres unmarked) [Compound 10, (2-(2,6-dimethylmorpholino)benzo[d]thiazol-6-yl)carbonohydrazonoyl dicyanide] | 74.5 | 84.8 | 24
N#CC(C#N)=NNc1ccc2nc(N3C4CCC3COC4)sc2c1 [Compound 11, (2-(3-oxa-8-azabicyclo[3.2.1]octan-8-yl)benzo[d]thiazol-6-yl)carbonohydrazonoyl dicyanide] | 78.4 | 73.9 | 32
CN1CCN(c2nc3ccc(NN=C(C#N)C#N)cc3o2)CC1 [Compound 14, (2-(4-methylpiperazin-1-yl)benzo[d]oxazol-6-yl)carbonohydrazonoyl dicyanide] | 96.8 | – | 48
N#CC(C#N)=NNc1ccc2nc(N3CCNCC3)sc2c1 [Compound 24, (2-(piperazin-1-yl)benzo[d]thiazol-6-yl)carbonohydrazonoyl dicyanide] | 74.7 | – | 168
N#CC(C#N)=NNc1ccc2nc(N3CCNCC3)oc2c1 [Compound 25, (2-(piperazin-1-yl)benzo[d]oxazol-6-yl)carbonohydrazonoyl dicyanide] | 91.5 | – | 36
CC(C)N1CCN(c2nc3ccc(NN=C(C#N)C#N)cc3s2)CC1 [Compound 27, (2-(4-isopropylpiperazin-1-yl)benzo[d]thiazol-6-yl)carbonohydrazonoyl dicyanide] | 59.8 | – | 44
